Assay results published in patent publication US4212862A, “O,O-Diaryl-1-acyloxy-2,2,2-trichloroethylphosphonates and fungicides based thereon” (priority 1978, dated 1980).
Values joined by “and” are separate entries in the source; they are usually repeats but may differ in a detail not shown here. Equal values may be shown once. Read-outs that look alike come from different tables or passages of the source.

How the values were obtained:
[1] = system: stalk rust (Puccinia graminis f. tritici); assay type: in vivo
[2] = system: stalk rust of wheat (Puccinia graminis); assay type: in vivo; details: in vivo
[3] = Acute peroral toxicity for warm-blooded animals (LD50, LD90); assay type: in vivo, white mice; details: mouse, in vivo, po, Table 2; peroral; read-out: LD50 for white mice
Protocol: Toxicity (LD50) was evaluated on males and females of white mice with peroral administration of the compounds. A portion of the test compound was mixed with the emulsifier Twin-20 and diluted with distilled water to the required working concentration. Administration of the preparation was effected by means of a metal probe and syringe directly into the stomach of test animals 2-3 hours after feeding. The tests were performed using several doses, 6 animals per each dose. Subsequent observation was effected for two weeks.

[4] = system: rust diseases of cereal crops; details: prior art; cited from earlier work
[5] = system: plants; details: prior art; cited from earlier work
[6] = system: spores of Piricularia oryzae Cav.; assay type: cell-based; details: 24 hours
[7] = system: yellow rust of wheat; details: in vivo
[8] = prior art; cited from earlier work
[9] = system: yellow rust (P. striiformis); experiment: Efficiency of Aphos for USVS against yellow rust of wheat under field conditions (Table 8); assay type: in vivo; details: Taskent region, spring wheat Kzyl Shark, 3.0 kg/ha, 7.5 l/ha (Zineb 600), 3 sprayings
[10] = system: apple scab (Venturia inaequalis); details: in vivo
[11] = system: rust diseases of cereal crops; experiment: Activity against rust diseases of cereal crops (general statements); assay type: in vivo; details: frequent heavy rains
[12] = system: stalk rust (Puccinia graminis f. tritici); assay type: in vivo; details: Table 8, 3.0 kg/ha, 3 sprayings
[13] = Krasnodar region, winter wheat Odesskaja-51, 7.5 l/ha (Zineb 3.2 kg/ha, 600 l/ha)
[14] = Moscow region, spring wheat Krasnozernaja, 7.5 l/ha (Zineb 600)

Q: Which “Percentage of plants injured with rust, 1-st evaluation” value (shortened to “Percentage … 1-st evaluation”) ([1]; in vivo) does the source give for CCC(=O)OC(C(Cl)(Cl)Cl)P(=O)(Oc1cc(C)cc(C)c1)Oc1cc(C)cc(C)c1 (stereo not drawn) [XXVII] here?
A: 0.5%

Q: What about the “Percentage of plants injured with rust, 2-nd evaluation” value (“Percentage … 2-nd evaluation” below) ([1]; in vivo) of the same compound?
A: 10.5%

Q: And the “Weight of 1,000 grains” value ([1]; in vivo)?
A: 17.1 g

Q: And the Yield ([1]; in vivo)?
A: 11.50 c/ha

Q: And the “Percentage of injury lowered” value [2]?
A: 92%

Q: What about the LD50 at 336 h [3] of the same compound?
A: > 1000 mg/kg

Q: Which “Percentage … 1-st evaluation” value ([1]; in vivo) does the source give for CC(=O)OC(C(Cl)(Cl)Cl)P(=O)(Oc1cc(C)cc(C)c1)Oc1cc(C)cc(C)c1 (stereo not drawn) [XXVI] here?
A: 0.5%

Q: What about the “Percentage … 2-nd evaluation” value ([1]; in vivo) of the same compound?
A: 10.0%

Q: And the “Weight of 1,000 grains” value ([1]; in vivo)?
A: 16.7 g

Q: What about the Yield ([1]; in vivo) of the same compound?
A: 11.70 c/ha

Q: What about the “Percentage of injury lowered” value [2] of the same compound?
A: 84%

Q: And the LD50 at 336 h [3]?
A: > 1000 mg/kg

Q: What does the source list for CCC(=O)OC(C(Cl)(Cl)Cl)P(=O)(Oc1ccc(Cl)cc1)Oc1ccc(Cl)cc1 (stereo not drawn) [XXXI]?
A: Percentage of plants injured with rust, 1-st evaluation ([1]; in vivo): 0.5%; Percentage of plants injured with rust, 2-nd evaluation ([1]; in vivo): 8.0%; Weight of 1,000 grains ([1]; in vivo): 18.0 g; Yield ([1]; in vivo): 13.30 c/ha; Percentage of injury lowered [2]: 82% and 59%; LD50 at 336 h [3]: > 1000 mg/kg

Q: Which results are given for CC(=O)OC(C(Cl)(Cl)Cl)P(=O)(Oc1ccc(Cl)cc1)Oc1ccc(Cl)cc1 (stereo not drawn) [XXX]?
A: Percentage of plants injured with rust, 1-st evaluation ([1]; in vivo): 0.5%; Percentage of plants injured with rust, 2-nd evaluation ([1]; in vivo): 7.0%; Weight of 1,000 grains ([1]; in vivo): 20.9 g; Yield ([1]; in vivo): 16.70 c/ha; Percentage of injury lowered [2]: 89% and 68%; LD50 at 336 h [3]: > 1000 mg/kg

Q: With CCCC(=O)OC(C(Cl)(Cl)Cl)P(=O)(Oc1ccc(C)cc1)Oc1ccc(C)cc1 (stereo not drawn) [XX] as the compound, how does the “Percentage … 1-st evaluation” value ([1]; in vivo) read?
A: 0.5%

Q: What about the “Percentage … 2-nd evaluation” value ([1]; in vivo) of the same compound?
A: 7.5%

Q: What about the “Weight of 1,000 grains” value ([1]; in vivo) of the same compound?
A: 18.2 g

Q: And the Yield ([1]; in vivo)?
A: 13.45 c/ha

Q: What about the “Percentage of injury lowered” value [2] of the same compound?
A: 97%

Q: And the LD50 at 336 h [3]?
A: > 1000 mg/kg

Q: Which results are given for Nc1ccc(S(=O)(=O)O)cc1 [anilate]?
A: activity against rust diseases [4]: low-efficiency; phytotoxicity [5]: phytotoxic

Q: With CCOP(=O)(OCC)SCc1ccccc1 [kitacin, O,O-diethyl-S-benzylthiophosphate, reference compound] as the compound, how does the “Concentration causing 50% death of spores” value [6] read?
A: 28.6 mg/L

Q: What does the source list for zinc ethylenebisdithiocarbamate [Zineb]?
A: Percentage of injured plants, 17.05 [7]: 4% and 6% and 5%; Weight of 1,000 grains [7]: 35.4 g and 31.0 g and 34.8 g; Yield [7]: 411 and 351 and 412; efficiency with longer intervals between sprayings [7]: substantially reduced to zero; stability upon storage [8]: not stable upon storage; Grain yield [9]: 20.8 c/ha; Percentage of injured plants [9]: 14.4%; Weight of 1,000 grains [9]: 31.6 g; activity against rust diseases [4]: high activity; reduced the degree of injury as compared to the control [10]: 97%; efficiency under different agroclimatic conditions including frequent heavy rains [11]: low-effective; Weight of 1,000 grains ([1]; 3 kg/ha a.i., three sprayings): 14.0 g; Yield ([1]; 3 kg/ha a.i., three sprayings): 8.55 c/ha; Percentage of plants injured with rust, 1-st evaluation ([1]; 3 kg/ha a.i., 9 days after the first spraying, Moscow region, spring wheat Krasnozernaja): 0.5%; Percentage of plants injured with rust, 2-nd evaluation ([1]; 3 kg/ha a.i., two weeks after the third spraying, Moscow region, spring wheat Krasnozernaja): 12.0%; Grain yield [12, 13]: 34.5 c/ha; Percentage of injured plants [12, 13]: 16.0%; Weight of 1,000 grains [12, 13]: 35.6 g; Grain yield [12, 14]: 8.0 c/ha; Percentage of injured plants [12, 14]: 23.3%; Weight of 1,000 grains [12, 14]: 12.6 g
